Results from patent US20110160158A1, “METHODS OF TREATMENT OF BIPOLAR DISORDER” (REPLIGEN CORPORATION, priority 2008, published 2011).
One block for each compound: values may come before it.

How the values were obtained:
[1] = test system: patients with Bipolar I Disorder, Most Recent Episode Depressed; type: in vivo, human
Experimental: (§1) The YMRS is an 11 item scale designed to measure core manic symptoms (Young et al., Br. J. Psychiatry, 133:429-435). A cumulative score of 15 or greater on the YMRS was considered evidence of a treatment emergent affective switch. The HAM-A scale is a measure of global anxiety, including cognitive and somatic symptoms.
(§2) A six-week, double blind, placebo-controlled, dose-escalation study was performed to assess the safety and efficacy of uridine in bipolar I depression. Eight-four (84) patients of both sexes were enrolled at twelve sites, randomized on a 1:1 basis to receive either placebo or uridine. To decrease the probability of a false negative result, uridine or placebo were given as monotherapy, and no concurrent bipolar medications, including mood stabilizers, atypical antipsychotics, antidepressants, anticonvulsants or other psychotropic medications were allowed during the study. Patients taking such medications were tapered gradually during the 28 days prior to initiation of the trial. Patients were evaluated each week over the 6-week trial period, with an extensive intervention plan for any patient having exacerbation of bipolar or depressive symptoms. After the trial period, patients were eligible to initiate therapy for bipolar disease and a follow-up visit occurred at week ten.
Informed consent was provided by all patients. […]

[2] = test system: patients (e.g. hereditary orotic aciduria); conditions: cited from earlier work
[3] = test system: patients with Bipolar I Disorder, Most Recent Episode Depressed; assay: Six-week double blind placebo-controlled dose-escalation study of uridine in bipolar I depression: MADRS; type: in vivo, human; conditions: for True difference in mean MADRS between groups (uridine vs placebo): week 6; for Mean change of MADRS from baseline (treatment response), percent: total group; for Average improvement on MADRS over placebo: weeks 2-6
[4] = test system: patients with Bipolar I Disorder, Most Recent Episode Depressed; assay: Same six-week study: Clinical Global Impression for bipolar disorder (CGI-BP-S / CGI-BP-C); type: in vivo, human; conditions: for Average CGI-C-BP (Depression) / Average CGI-C-BP (Overall): 7-point scale, 4 = no change, lower = improved
Source text: The CGI-BP scale is a modification of the clinical global impression for use in bipolar disorder as a global assessment of patient severity and change of status (Spearing et al., 1997, Psychiatry Res., 73:159-171). The CGI-BP-S rates the severity of the illness on a 7 point scale. The CGI-BP-C rates the change in the severity of disease compared to baseline. This also uses a 7 point scale, anchored by a score of 4 which correlates to no change since the initiation of treatment. Lower scores correspond to improvement, higher to worsening.
as §2
Informed consent was provided by all patients.
Subjects in the uridine treatment group were given either 2 g per day (low dose) or 4 g per day (high dose) of uridine. Subjects in the placebo group were given tablets of identical size and appearance with identical dosing instructions.
A dose of 1 g orally twice daily (2 g/day) was chosen to initiate treatment, with an increase to 2 g orally twice daily (4 g/day) in the absence of clinical improvement. On Day 1, all patients received a single dose of either placebo or uridine (2 g). This loading dose was done in order to compare pharmacokinetics of uridine at study start and end. Beginning on Day 2, patients received either placebo and uridine at a dose of 2 g/day administered as 1 g orally twice daily (2 tablets twice daily) for one week. At the Day 8 visit, the dose was increased to 4 g/day administered as 2 g orally twice daily (4 tablets twice daily) if there had been no serious untoward drug-related adverse events, and if the subject had less than a 25% improvement on the MADRS from baseline (Day 1). Patients that remained on 2 g/day were increased to 4 g/day at a subsequent visit if the improvement from baseline on the MADRS was less than 25%. Likewise, subjects having adverse events at the high dose were decreased to the low dose at the discretion of the investigator. On Day 43, all patients received a single dose of either placebo or uridine administered as 2 g orally twice daily (4 tablets twice daily), regardless of dose regimen. This was the patients' last dose of study drug.
The CGI-BP is a clinical impression scale that has been adapted for bipolar disorder and is comprised of an overall score, a depression score and a mania score. The CGI in this study used the severity of disease (CGI-BP-S) at study day 1 as the anchor point and the change from baseline (CGI-BP-C) in subsequent evaluations. Each assessment was intended to measure the change from the study start. The severity of disease (baseline) was similar between groups (Uridine=4.48; Placebo=4.68, n.s.), which are similar in magnitude to published efficacy trials in bipolar I depression (Brown et al., 2006, J. Clin. Psychiatry, 67:1025-33; Calabrese et al., 1999, J. Clin. Psychiatry, 60:79-88; Thase et al., 2006, J. Clin. Psychiatry, 26:600-609; Tohen et al., 2003, Arch. Gen. Psychiatry, 60:1079-88; Goldberg et al., 2007, Am. J. Psychiatry, 164:1348-55; Nierenberg et al., 2006, Am. J. Psychiatry, 163:210-216). […]

[5] = test system: patients with Bipolar I Disorder, Most Recent Episode Depressed; assay: Same six-week study: Hamilton Anxiety Scale (HAM-A); type: in vivo, human
Experimental: as §1
as §2, with “After the trial period, patients were eligible to initiate therapy for bipolar disease and a follow-up visit occurred at week ten.” left out
The effect on anxiety in uridine-treated bipolar I depression subjects in comparison to placebo was evaluated using the mean HAM-A scores for each group.

[6] = in vivo; cited from earlier work
[7] = test system: patients undergoing cancer chemotherapy; conditions: cited from earlier work
[8] = test system: children with mitochondrial disease; conditions: 2 g/m^2 three times daily for up to two years; cited from earlier work
[9] = test system: patients undergoing chemotherapy with 5-fluorouracil; conditions: 6 g four times a day; cited from earlier work
[10] = Wk 10, follow-up a month after treatment concluded

- Exacerbation of mean YMRS on treatment ([1]; in vivo): did not exacerbate the mean YMRS
Compound: O=c1ccn([C@@H]2O[C@H](CO)[C@@H](O)[C@H]2O)c(=O)[nH]1 [uridine]
- Change in YMRS from baseline in comparison to placebo, MERM ([1]; while on treatment, p=0.025): significant decrease
- Effect of higher dosages in some patients ([2]; dosages higher than 1000 mg/kg/day): mild diarrhea
- Toxic effects of pure uridine, long-term experience ([2]; dosages of up to 1000 mg/kg/day): no known toxic effects
- Plasma uridine levels ([2]; oral, doses greater than 240 mg/kg): 60 to 80 µM
- Side effects noted with high dose oral uridine ([2]; oral, typically at doses greater than 240 mg/kg): diarrhea and abdominal cramps
- MADRS change from baseline, as percentage of the baseline score, Δ (%) ([3]; Baseline (Study Day 1)): 0%
- Average MADRS score ([3]; Baseline (Study Day 1), all patients): 30.28
- Difference in change from baseline of average MADRS vs placebo (Δ) ([3]; Day 43, subjects with <2 episodes of mania or hypomania): −8.2
- Difference in change from baseline of average MADRS vs placebo (Δ) ([3]; Day 43, subjects with <10 episodes of depression): −1.7
- Difference in change from baseline of average MADRS vs placebo (Δ) ([3]; Day 43, subjects with ≧10 episodes of depression, p=0.18): 5.8
- MADRS change from baseline, as percentage of the baseline score, Δ (%) ([3]; Wk 1): −25.8%
- Average MADRS score ([3]; Wk 1, oral 2-4 g/day, all patients): 22.46
- MADRS change from baseline, as percentage of the baseline score, Δ (%) ([3]; Wk 2): −37.9%
- Average MADRS score ([3]; Wk 2, oral 2-4 g/day, all patients): 18.81
- MADRS change from baseline, as percentage of the baseline score, Δ (%) ([3]; Wk 3): −52.5%
- Average MADRS score ([3]; Wk 3, oral 2-4 g/day, all patients): 15.90
- MADRS change from baseline, as percentage of the baseline score, Δ (%) ([3]; Wk 4): −54.0%
- Average MADRS score ([3]; Wk 4, oral 2-4 g/day, all patients): 13.93
- MADRS change from baseline, as percentage of the baseline score, Δ (%) ([3]; Wk 5): −50.6%
- Average MADRS score ([3]; Wk 5, oral 2-4 g/day, all patients): 14.97
- MADRS change from baseline, as percentage of the baseline score, Δ (%) ([3]; Wk 6): −58.1%
- Average MADRS score ([3]; Wk 6 (end of treatment), oral 2-4 g/day, all patients): 12.69
- Average MADRS score [3, 10]: 15.91
- MADRS change from baseline, as percentage of the baseline score, Δ (%) [3, 10]: −47.5%
- Effect size from MERM change in mean MADRS score compared to placebo ([3]; baseline adjusted as a covariate, all patients): 0.43
- Rebound in the MADRS assessment after end of dosing ([3]; final assessment 4 weeks after study drug administration was completed): no rebound
- Difference of the mean MADRS scores in comparison to placebo (primary efficacy outcome) ([3]; mixed effects repeat measures, day 1 to day 43, total scores p=0.011, percent change from baseline p=0.014): statistically significant
- Improvement in MADRS score (Uridine vs Placebo) ([3]; patients with <5 manic episodes, Day 1): −0.64
- Improvement in MADRS score (Uridine vs Placebo) ([3]; patients with <5 manic episodes, Day 8): −3.57
- Improvement in MADRS score (Uridine vs Placebo) ([3]; patients with <5 manic episodes, Day 15): −1.39
- Improvement in MADRS score (Uridine vs Placebo) ([3]; patients with <5 manic episodes, Day 22): −1.20
- Improvement in MADRS score (Uridine vs Placebo) ([3]; patients with <5 manic episodes, Day 29): −1.76
- Improvement in MADRS score (Uridine vs Placebo) ([3]; patients with <5 manic episodes, Day 36): −4.62
- Improvement in MADRS score (Uridine vs Placebo) ([3]; patients with <5 manic episodes, Day 43): −6.56
- Response (MADRS vs placebo) ([3]; patients with a history of fewer than 2 episodes of mania): No positive response
- Improvement in MADRS score (Uridine vs Placebo) ([3]; patients with ≧5 manic episodes, Day 1): 0.37
- Improvement in MADRS score (Uridine vs Placebo) ([3]; patients with ≧5 manic episodes, Day 8): 1.63
- Improvement in MADRS score (Uridine vs Placebo) ([3]; patients with ≧5 manic episodes, Day 15): 4.41
- Improvement in MADRS score (Uridine vs Placebo) ([3]; patients with ≧5 manic episodes, Day 22): 6.33
- Improvement in MADRS score (Uridine vs Placebo) ([3]; patients with ≧5 manic episodes, Day 29): 7.07
- Improvement in MADRS score (Uridine vs Placebo) ([3]; patients with ≧5 manic episodes, Day 36): 3.20
- Improvement in MADRS score (Uridine vs Placebo) ([3]; patients with ≧5 manic episodes, Day 43 (week 6)): 5.88
- Treatment response, MADRS change from baseline ([3]; study end (week 6), subset with 15 or more episodes of depression): 58%
- MADRS improvement from baseline ([3]; study end, subset with <15 historic episodes of depression): 58%
- Difference in mean MADRS scores between treatment and placebo groups ([3]; subset with <15 historic episodes of depression (49 subjects)): no appreciable difference
- Average true difference in mean MADRS (corrected for baseline) vs placebo ([3]; week 3 to week 6, all patients): 3.2 points
- True difference in mean MADRS vs placebo (Δ) ([3]; week 6 (Day 43), subjects with ≧2 episodes of mania or hypomania, p=0.11): 5.7
- True difference in mean MADRS between groups (uridine vs placebo) ([3]; subjects with 15 or more episodes of mania and/or hypomania): 9.46
- True difference in mean MADRS between groups (uridine vs placebo) ([3]; subjects with history of 15 or more episodes of depression): 6.35
- True difference in mean MADRS between groups (uridine vs placebo) ([3]; total score (all subjects)): 3.04
- Mean change of MADRS from baseline ([3]; week 6 end of study, all patients): 17.6 points
- Mean change of MADRS from baseline (treatment response), percent ([3]; week 6 end of study): 58%
- Mean change of MADRS from baseline (treatment response), percent ([3]; week 6 end of study, listed as RG2417): 58.1%
- Average improvement on MADRS over placebo ([3]; all patients in the study, p=0.01): 3.0 points
- Average improvement on MADRS over placebo ([3]; patients with more than 5 episodes of depression (n=50), p<0.001): 5.5 points
- Change in CGI vs placebo, MERM analysis of the treatment period ([4]; CGI-BP-C overall, p=0.044): significant difference
- Average CGI-C-BP (Depression) ([4]; Wk 1): 3.05
- Average CGI-C-BP (Overall) ([4]; Wk 1): 3.19
- Average CGI-C-BP (Depression) ([4]; Wk 2): 2.72
- Average CGI-C-BP (Overall) ([4]; Wk 2): 2.92
- Average CGI-C-BP (Depression) ([4]; Wk 3): 2.31
- Average CGI-C-BP (Overall) ([4]; Wk 3): 2.45
- Average CGI-C-BP (Depression) ([4]; Wk 4): 2.10
- Average CGI-C-BP (Overall) ([4]; Wk 4): 2.33
- Average CGI-C-BP (Depression) ([4]; Wk 5): 2.14
- Average CGI-C-BP (Overall) ([4]; Wk 5): 2.31
- Average CGI-C-BP (Depression) ([4]; Wk 6): 2.03
- Average CGI-C-BP (Overall) ([4]; Wk 6): 2.21
- Mean HAM-A score vs placebo, MERM over the treatment period [5]: no difference between groups
- Volume distribution [6]: around 0.634 liters/kg
- Main side effects seen with IV uridine [7]: infusion site phlebitis and transient shivering and fever
- Sustained elevations in plasma uridine ([7]; intravenous, cancer chemotherapy context): exceeding 2,000 μM

Compound: CC(=O)OC[C@H]1O[C@@H](n2ccc(=O)[nH]c2=O)[C@H](OC(C)=O)[C@@H]1OC(C)=O [TAU, Triacetyluridine]
- Adverse events [8]: no adverse events were reported
- Adverse effects [9]: no adverse effects
